Source: patent publication US6982249B1, “Bradykinin analogs as selective inhibitors of cell activation” (The Regents of the University of Michigan, priority 1997, dated 2006)
Entries after “also recorded” stand apart in the source; their conditions may differ. Read-outs that look alike come from different tables or passages of the source. Square brackets hold non-standard residues; d marks the D form. Ends that are not written are not given here.

Experiments:
[1] = Observations of the animals after bolus injection (blood pressure, pulse, platelet count, bleeding); format: in vivo, New Zealand white rabbits; settings: rabbit, i.v. bolus
Procedure: (§1) Clearance studies were performed in New Zealand white rabbits weighing between 2.0 and 2.5 kg. Rabbits were premedicated according to the method of Michelson et al., J. Mol. Cell Cardiol. 20, 547 (1988) with 10 mg/kg 1 M xylazine and 10 mg/kg 1 M ketamine. After tracheostomy, intubation, and positive pressure ventilation done with room air (Harvard instruments), stage III surgical anesthesia was maintained with 20 mg/ml of intravenous pentobarbital. A carotid artery and a jugular vein were then exposed. A catheter was inserted into the exposed carotid artery for withdrawal of blood samples and monitoring the animal's blood pressure (Gould, Inc., Cardiovascular Products, Oxnard. Calif.). In a similar manner, a catheter was inserted into the exposed jugular vein for administering the anesthetic and BK analog.
(§2) A single intravenous infusion of BK analog was injected. The amount of BK analog injected was calculated from the weight of the animal such that the blood concentration was 1 mM peptide. For example: for a 2.5 kg rabbit, 7% of its weight gives an estimated blood volume of 175 ml. Accordingly, 89 mg of the control BK fragment SEQ ID NO:7 was injected (giving a 1 mM concentration in the 175 ml plasma). Depending upon the size of the animal, 75 to 90 mg peptide was injected. Blood samples were collected at 2, 4, 6, 8, 10, 20, 30, 40, 60, 90, and 120 minute intervals after infusion into a 0.013 M sodium citrate anticoagulant solution. Plasma was prepared from each of the blood samples collected over time by centrifugation of the blood samples at 10,000×g for two minutes. Aliquots of the plasmas were assayed for the presence of the BK analog antigen by the ELISA technique using a MARKIT-M [1-5] BK assay from Dainippon Pharmaceutical Co., Ltd., Osaka, Japan.

[2] = molecular target: T1, NAT12 (SEQ ID NO:2), α-thrombin cleavage site on the thrombin receptor (Homo sapiens, UniProt P25116); test: α-thrombin cleavage of NAT12 peptide (HPLC); format: biochemical; settings: 1 mM peptide, 8 nM α-thrombin
T1 construct: spans amino acids 35-46 of the α-thrombin cleavage site on the thrombin receptor
Procedure: The peptide NAT12 (SEQ ID NO:2), which spans amino acids 35-46 of the α-thrombin cleavage site on the thrombin receptor (Vu et al., Cell 64, 1057 (1991), was also used to determine whether BK analogs blocked α-thrombin cleavage of the cloned receptor.
The cleavage studies were performed according to the method of Molino et al., J. Biol. Chem. 270, 11168 (1995). Briefly, NAT12 (SEQ ID NO:2) was dissolved in a solution of 0.01 M NaH2PO4 and 0.15 M NaCl, pH 7.4. The mixture was then incubated with 8 nM α-thrombin for one hour at 37° C. either in the absence (control) or presence of 1 mM of a BK analog. Following incubation, the mixture was applied to a Vyadec C-18 HPLC column in 0.1% trifluoroacetic acid and eluted with a gradient from 0% to 100% of 80% MeCN and 0.1% trifluoroacetic acid. The sizes of the separated products were confirmed by mass spectrometry.
NAT12 (SEQ ID NO:2) produced a single peak (peak 1) when analyzed by HPLC. […] The additional peaks, peaks 3 and 2, represent the cleavage products of NAT12.

[3] = In vivo clearance after single intravenous infusion (plasma ELISA); parameters: species or system New Zealand white rabbits; settings: rabbit; for half-life: single i.v. infusion
Procedure: as §1, §2

[4] = test system: γ-thrombin-induced platelet aggregation; test: γ-thrombin-induced platelet aggregation in human platelet-rich plasma; format: cell-based; settings: for inhibition of γ-thrombin-induced platelet aggregation (in words): assay like Example 1A
Procedure: For human platelet aggregation studies, 50 ml human blood was collected into a syringe containing 5 ml of 0.013 M sodium citrate. The anticoagulated blood was centrifuged at 180 xg for 10 minutes at room temperature and the platelet-rich plasma was the supernatant. Platelet aggregation studies in platelet-rich plasma were performed in the cuvette of an aggregometer using γ-thrombin (Haematologic Technologies, Essex Junction, Vt.). After standardization of the aggregometer, the threshold dose of γ-thrombin, defined as the minimal concentration that will induce full platelet aggregation, was ascertained for each preparation of platelet-rich plasma. Typically, the threshold dose of γ-thrombin was between 5 and 30 nM.
Various concentrations of the peptide being tested were added to the platelet-rich plasma in the cuvette of the aggregometer. Platelet aggregation was induced by the addition of γ-thrombin. The degree of platelet aggregation was determined by measuring (in arbitrary units) the increase in light transmission through the stirred suspension of platelet-rich plasma. […]
The peptides synthesized in Example 4 were assayed for the ability to inhibit γ-thrombin-induced platelet aggregation in platelet-rich plasma.

[5] = molecular target: T2, NAT12 (thrombin receptor cleavage site) (Homo sapiens, UniProt P25116); test: Binding of biotinylated NAT12 to peptides linked to microtiter plates; settings: peptide linked to microtiter plate
T2 construct: spans amino acids 35-46 of the α-thrombin cleavage site on the thrombin receptor
Procedure: (§3) Peptides from a combinatorial library are linked to microtiter plates and the wells are blocked with 1% BSA. Biotinylated-NAT12 is incubated with the microtiter plates. After washing, the presence of biotin-NAT12 attached to the matrix support expressing peptides is detected by incubation with ImmunoPure streptavidin horseradish peroxidase conjugate (Pierce Chemical Co., Rockville Ill.) followed by peroxidase-specific fast reacting substrate, turbo-3,3′,5,5′-tetramethylbenzidine (turbo-TMB, Pierce Chemical Co., Rockville Ill.). After incubation for 5 min at room temperature, the color reaction of the turbo-TMB is stopped by the addition of 1 M phosphoric acid. The bound peptide is quantified by measuring the absorbance of the reaction mixture at 450 nm using a Microplate auto reader EL311 (BioTek Instrument, Winooski Vt.).
The specific binding of biotinylated NAT12 to BK analogs and other peptides was assayed as described in Example 2A.

[6] = test system: fibroblasts (thrombin receptor, PAR 1); test: α-thrombin-induced calcium mobilization in fibroblasts; format: cell-based
Procedure: A variation of the calcium mobilization assay uses fibroblasts (which express a single receptor for thrombin, PAR 1), umbilical vein endothelial cells, or other cells which express the cloned thrombin receptor, and which grow in monolayers on the bottom of plastic wells.
Fibroblasts or endothelial cells were grown in 24-96 well plates and loaded with the fluorescent Ca^2+ indicator fura-2 acetyloxymethylester (5 μM, Molecular Probes Inc.) by incubation for 60 min. in HEPES-Tyrode's buffer at 37° C. After washing the cells, the fluorescence of the cells was monitored on a thermostatically controlled heated pad at 37° C. for 1 min, then the cells were incubated with α-thrombin (1 to 5 nM) in the absence or presence of a BK analog. Fluorescence was detected by a Perkin-Elmer LS-50B Luminescence Spectrofluorometer. Excitation was measured at 340 and 380 nm wavelength and emission was assessed at 510 nm. The cytosolic Ca^2+ levels were determined as described above. The Rmax value was determined using 10 mM Ca^2+ in the presence of 20 μM Ionophor A23187; Rmin was determined in the presence of 20 mM EDTA.
The ability of BK analogs to inhibit α-thrombin-induced calcium mobilization in fibroblasts and human umbilical vein endothelial cells (HUVEC) was assayed as described in Example 1C.

NAT12 = molecular target: T3, NAT12; test: cell-based or functional assay
T3 chain: NATLDPRSFLLR

RPPGC = molecular target: T4, RPPGC (not fully specified); test: microtiter plate assay, plate-linked peptide, biotin-NAT12 detected with streptavidin-HRP
T4 peptide: RPPGC
Procedure: as §3, with “turbo-3,3',5,5'-tetramethylbenzidine” for “turbo-3,3′,5,5′-tetramethylbenzidine”
(§4) Peptides from a combinatorial library are linked to a microtiter plate and blocked with 1% BSA. Biotinylated-NAT12 is incubated with the microtiter plate. After washing, the presence of biotin-NAT12 attached to the matrix support expressing peptides is detected by incubation with Immu-noPure streptavidin horseradish peroxidase conjugate (Pierce Chemical Co., Rockville Ill.) followed by peroxidase-specific fast reacting substrate, turbo-3,3',5,5'-tetramethylbenzidine (turbo-TMB, Pierce Chemical Co., Rockville Ill.). After incubation for 5 min at room temperature, the color reaction of the turbo-TMB is stopped by the addition of 1 M phosphoric acid. The bound peptide is quantified by measuring the absorbance of the reaction mixture at 450 nm using a Microplate auto reader EL311 (BioTek Instrument, Winooski Vt.). Compounds which bind the NAT12 peptide are also assayed for the ability to inhibit platelet aggregation and the ability to inhibit calcium mobilization, using the assays described in Example 1.

LNA7 = molecular target: T5, LNA7; test: as above
T5 construct: Control peptide
T5 peptide: LNAENNA
Procedure: as §3, with “turbo-3,3',5,5'-tetramethylbenzidine” for “turbo-3,3′,5,5′-tetramethylbenzidine”
as §4

FSPFR = molecular target: T6, FSPFR; test: as above
T6 construct: Control peptide
T6 peptide: FSPFR
Procedure: as §3, with “turbo-3,3',5,5'-tetramethylbenzidine” for “turbo-3,3′,5,5′-tetramethylbenzidine”
as §4

RPPGF [RPPGF, Arg-Pro-Pro-Gly-Phe]
bleeding at the surgical sites of cutdowns and intubations [1]: no abnormal bleeding | blood pressure, pulse, and platelet count [1]: remained stable | unfavorable effects following the bolus injection [1]: No unfavorable effects were observed | reduction of NAT12 peak 1 area after α-thrombin treatment ([2]; 1 h 37° C., without peptide 81%): 57% | NAT12 cleavage product peak 2, share of original peak area ([2]; without peptide 37%): 26% | NAT12 cleavage product peak 3, share of original peak area ([2]; without peptide 44%): 31% | Cmax ([3]; New Zealand white, plasma, iv, single i.v. infusion 75 to 90 mg, ELISA, two of three rabbits, read-out: peak plasma concentration after infusion): 60 µg/mL | half-life ([3]; New Zealand white, plasma, iv, read-out: half-life of antigen clearance in plasma, first phase): 2.8 min | half-life ([3]; New Zealand white, plasma, iv, read-out: half-life of antigen clearance in plasma, second phase): 20 min | peak plasma concentration after infusion ([3]; single i.v. infusion 75 to 90 mg, ELISA, two of three rabbits): 0.120 mM

[dR]-Pro-Pro
inhibition of γ-thrombin-induced platelet aggregation (in words) ([4]; human PRP): reduced ability

Arg-Pro
inhibition of γ-thrombin-induced platelet aggregation (in words) ([4]; human PRP): no inhibitory activity

LNA7: non-BK analog peptide (SEQ ID NO:8) (LNAENNA; bradykinin analog)
inhibition of γ-thrombin-induced platelet aggregation ([4]; 1 mM peptide, 20 nM γ-thrombin, human PRP): unable to inhibit | specific binding of biotinylated NAT12 to the peptide (FIG. 4) [5]: not

Arg-Pro-Pro-Amide [RPP-Amide]
inhibition of γ-thrombin-induced platelet aggregation (in words) ([4]; human PRP): reduced ability

Arg-Pro-Pro-Ala-Phe (RPPAF; bradykinin analog)
inhibition of γ-thrombin-induced platelet aggregation (in words) ([4]; human PRP): showed inhibition

FSPFR: peptide FSPFR (SEQ ID NO: 10) (bradykinin analog)
specific binding of biotinylated NAT12 to the peptide (FIG. 4) [5]: not

Arg-Pro-Pro [RPP]
γ-thrombin-induced platelet aggregation at 50 μM peptide (FIG. 2) ([4]; 50 μM peptide, 27.5 nM γ-thrombin): abolish | fold better as an inhibitor than RPPGF ([4]; 100% inhibition of γ-thrombin-induced aggregation, same conditions): greater than 2.5 fold | inhibition of γ-thrombin-induced platelet aggregation (in words) ([4]; human PRP): showed inhibition | concentration that inhibited γ-thrombin-induced platelet aggregation 100% ([4]; mean±SD of 3 or 5 experiments, human PRP): 0.089 mM | inhibition of α-thrombin-induced calcium mobilization in fibroblasts (FIG. 5) [6]: inhibited calcium mobilization; also recorded: inhibition

RPPGC: peptide RPPGC (SEQ ID NO:9) (bradykinin analog)
specific binding of biotinylated NAT12 to the peptide (FIG. 4) [5]: specifically bound

Arg-[dP]-Pro
inhibition of γ-thrombin-induced platelet aggregation (in words) ([4]; human PRP): reduced ability

RPPGF (modifications not checked) [Arg-Pro-Pro-Gly-Phe (RPPGF)]
cleavage product peak 2, as a share of the original NAT12 peak area, in the presence of 1 mM peptide (NAT12): 26% | cleavage product peak 3, as a share of the original NAT12 peak area, in the presence of 1 mM peptide (NAT12): 31% | reduction of the NAT12 HPLC peak area (peak 1) after alpha-thrombin in the presence of 1 mM peptide (NAT12): 57%

B1: biotinylated NAT12 (peptide)
peptide: NATLDPRSFLLR
modifications: also: biotinylated (position not given here)
notes: It was in solution in the microtiter plate assay; also called biotin-NAT12
binding result (RPPGC): binds | binding result (LNA7): no binding | binding result (FSPFR): no binding
